Tests used:
[1] = molecular target: T1, 5-hydroxytryptamine receptor 1A (Homo sapiens, UniProt P08908)
T1 sequence (P08908 whole entry): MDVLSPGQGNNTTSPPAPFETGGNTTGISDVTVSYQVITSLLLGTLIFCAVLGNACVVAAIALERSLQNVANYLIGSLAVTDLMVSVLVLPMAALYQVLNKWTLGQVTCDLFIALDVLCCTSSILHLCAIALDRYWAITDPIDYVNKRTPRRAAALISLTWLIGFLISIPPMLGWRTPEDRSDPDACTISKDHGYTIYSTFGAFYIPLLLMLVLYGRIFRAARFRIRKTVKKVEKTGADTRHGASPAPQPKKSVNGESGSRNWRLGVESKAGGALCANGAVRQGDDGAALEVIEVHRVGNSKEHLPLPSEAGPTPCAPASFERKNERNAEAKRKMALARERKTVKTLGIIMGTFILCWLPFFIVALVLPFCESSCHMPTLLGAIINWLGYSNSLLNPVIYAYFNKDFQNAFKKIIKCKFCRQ

[2] = Ratio of drug uptake in rhesus monkey temporal cortex to cerebellum assessed as non-displaceable binding potential; format: ADME, tissue-based, Macaca mulatta; details: in vivo
[3] = Binding affinity to pig 5-HT1B receptor (unknown origin) assessed as inhibition constant
[4] = Drug uptake in pig brain cortex assessed as non-displaceable binding potential; format: ADME, tissue-based, Sus scrofa; details: in vivo
[5] = molecular target: T2, 5-hydroxytryptamine receptor 7 (Homo sapiens, UniProt P34969); experiment: Binding affinity to human recombinant 5-HT7 receptor expressed in CHO cells assessed as inhibition constant; format: cell-based
[6] = molecular target: 5-hydroxytryptamine receptor 5A (Homo sapiens, UniProt P47898); experiment: Binding affinity to 5-HT5A receptor (unknown origin) assessed as inhibition constant
[7] = molecular target: T2, 5-hydroxytryptamine receptor 7
[8] = molecular target: 5-hydroxytryptamine receptor 2B (Homo sapiens, UniProt P41595)
[9] = molecular target: T3, 5-hydroxytryptamine receptor 2C (Homo sapiens, UniProt P28335)
T3 sequence (P28335 whole entry): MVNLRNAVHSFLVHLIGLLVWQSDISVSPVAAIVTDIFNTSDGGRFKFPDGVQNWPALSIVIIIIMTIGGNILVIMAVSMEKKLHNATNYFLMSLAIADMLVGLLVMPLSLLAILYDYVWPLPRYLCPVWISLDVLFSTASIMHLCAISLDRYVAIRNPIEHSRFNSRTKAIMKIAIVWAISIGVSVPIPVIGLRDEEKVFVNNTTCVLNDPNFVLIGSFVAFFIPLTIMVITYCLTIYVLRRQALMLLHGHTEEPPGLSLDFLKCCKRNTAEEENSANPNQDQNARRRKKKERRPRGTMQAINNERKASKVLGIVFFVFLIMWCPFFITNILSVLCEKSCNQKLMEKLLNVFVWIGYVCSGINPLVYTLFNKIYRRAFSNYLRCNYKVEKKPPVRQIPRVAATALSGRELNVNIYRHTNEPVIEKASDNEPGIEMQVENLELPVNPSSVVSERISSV

[10] = molecular target: 5-hydroxytryptamine receptor 1D (Homo sapiens, UniProt P28221); experiment: Binding affinity to 5-HT1D (unknown origin) assessed as inhibition constant
[11] = molecular target: T1, 5-hydroxytryptamine receptor 1A; remark: listed apart in the source
[12] = molecular target: 5-hydroxytryptamine receptor 1B (Homo sapiens, UniProt P28222)
[13] = Drug uptake in pig brain cortex measured at 10 to 20 mins postinjection; format: ADME, organism-based, Sus scrofa; details: in vivo, time 10-20 min
[14] = molecular target: T4, Alpha-1A adrenergic receptor (Homo sapiens, UniProt P35348); experiment: Binding affinity to alpha 1A adrenergic receptor (unknown origin) assessed as inhibition constant
T4 sequence (P35348 whole entry): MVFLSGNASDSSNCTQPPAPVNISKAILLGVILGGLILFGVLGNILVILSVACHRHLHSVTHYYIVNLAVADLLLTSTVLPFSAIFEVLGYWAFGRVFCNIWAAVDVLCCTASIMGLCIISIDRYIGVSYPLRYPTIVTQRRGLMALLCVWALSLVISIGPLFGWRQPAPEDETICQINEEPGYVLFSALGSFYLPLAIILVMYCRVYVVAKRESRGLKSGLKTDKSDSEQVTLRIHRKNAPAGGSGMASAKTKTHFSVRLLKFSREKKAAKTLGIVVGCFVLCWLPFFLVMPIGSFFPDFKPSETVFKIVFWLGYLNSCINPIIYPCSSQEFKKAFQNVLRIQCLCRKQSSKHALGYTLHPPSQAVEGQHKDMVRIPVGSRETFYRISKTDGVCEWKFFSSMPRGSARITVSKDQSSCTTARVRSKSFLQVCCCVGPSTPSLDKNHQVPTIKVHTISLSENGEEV

[15] = Lipophilicity, logD of the compound at pH 7.4; format: physicochemical; details: buffer
[16] = Drug uptake in cynomolgus monkey in brain administered IV measured at 7.5 mins relative to control; format: ADME, tissue-based, Macaca fascicularis; details: in vivo, 0.125 h
[17] = molecular target: 5-hydroxytryptamine receptor 2A (Homo sapiens, UniProt P28223)
[18] = molecular target: T1, 5-hydroxytryptamine receptor 1A; experiment: Binding affinity to 5-HT1A receptor in human HeLa cell membrane assessed as inhibition constant by Packard top-counter analysis; format: cell membranes
[19] = molecular target: T5, 5-hydroxytryptamine receptor 1A (Rattus norvegicus, UniProt P19327)
T5 sequence (P19327 whole entry): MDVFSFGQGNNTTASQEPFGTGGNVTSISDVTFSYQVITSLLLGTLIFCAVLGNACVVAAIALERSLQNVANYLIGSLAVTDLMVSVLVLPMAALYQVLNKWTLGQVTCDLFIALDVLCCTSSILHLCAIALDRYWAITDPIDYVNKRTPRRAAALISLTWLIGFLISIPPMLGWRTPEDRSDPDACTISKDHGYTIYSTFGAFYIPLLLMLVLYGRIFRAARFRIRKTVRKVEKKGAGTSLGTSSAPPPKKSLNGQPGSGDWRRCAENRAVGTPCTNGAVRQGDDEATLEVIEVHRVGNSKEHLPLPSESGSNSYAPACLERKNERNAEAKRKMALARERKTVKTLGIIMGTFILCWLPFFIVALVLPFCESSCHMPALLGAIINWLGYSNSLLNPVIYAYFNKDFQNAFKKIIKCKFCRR

Sequence of 5-hydroxytryptamine receptor 2B (P41595 whole entry): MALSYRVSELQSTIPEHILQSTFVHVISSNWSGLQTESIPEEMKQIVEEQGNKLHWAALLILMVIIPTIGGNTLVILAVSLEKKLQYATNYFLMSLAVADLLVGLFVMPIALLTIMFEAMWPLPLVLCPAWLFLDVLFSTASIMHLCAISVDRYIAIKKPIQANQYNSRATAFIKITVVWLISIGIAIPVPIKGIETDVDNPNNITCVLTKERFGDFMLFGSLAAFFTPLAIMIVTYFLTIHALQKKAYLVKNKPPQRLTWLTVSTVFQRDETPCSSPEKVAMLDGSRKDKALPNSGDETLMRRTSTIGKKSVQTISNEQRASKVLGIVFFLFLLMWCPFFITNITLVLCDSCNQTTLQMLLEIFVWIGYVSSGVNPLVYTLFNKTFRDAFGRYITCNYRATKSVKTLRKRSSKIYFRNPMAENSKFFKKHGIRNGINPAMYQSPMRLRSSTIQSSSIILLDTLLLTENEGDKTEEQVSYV
Sequence of 5-hydroxytryptamine receptor 1D (P28221 whole entry): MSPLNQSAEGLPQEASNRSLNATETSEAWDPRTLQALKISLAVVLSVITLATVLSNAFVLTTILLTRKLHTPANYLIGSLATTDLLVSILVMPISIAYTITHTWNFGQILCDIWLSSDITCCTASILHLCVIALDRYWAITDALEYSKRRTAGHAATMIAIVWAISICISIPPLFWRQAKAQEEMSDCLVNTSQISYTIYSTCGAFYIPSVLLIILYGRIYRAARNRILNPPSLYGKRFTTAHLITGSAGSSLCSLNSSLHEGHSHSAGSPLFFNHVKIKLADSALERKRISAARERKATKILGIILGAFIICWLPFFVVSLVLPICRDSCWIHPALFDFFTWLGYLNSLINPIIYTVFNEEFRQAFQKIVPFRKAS
Sequence of 5-hydroxytryptamine receptor 1B (P28222 whole entry): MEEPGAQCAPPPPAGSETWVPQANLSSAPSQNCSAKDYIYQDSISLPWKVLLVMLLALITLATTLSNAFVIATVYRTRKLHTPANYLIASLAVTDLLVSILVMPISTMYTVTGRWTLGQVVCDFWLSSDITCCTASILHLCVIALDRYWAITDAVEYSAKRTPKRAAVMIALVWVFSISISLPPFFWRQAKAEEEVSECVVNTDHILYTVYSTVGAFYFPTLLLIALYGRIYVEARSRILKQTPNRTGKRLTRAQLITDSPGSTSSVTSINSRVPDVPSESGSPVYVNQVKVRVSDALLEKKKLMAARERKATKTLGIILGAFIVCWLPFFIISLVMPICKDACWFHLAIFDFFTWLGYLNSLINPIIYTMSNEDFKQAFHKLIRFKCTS
T2 sequence (P34969 whole entry): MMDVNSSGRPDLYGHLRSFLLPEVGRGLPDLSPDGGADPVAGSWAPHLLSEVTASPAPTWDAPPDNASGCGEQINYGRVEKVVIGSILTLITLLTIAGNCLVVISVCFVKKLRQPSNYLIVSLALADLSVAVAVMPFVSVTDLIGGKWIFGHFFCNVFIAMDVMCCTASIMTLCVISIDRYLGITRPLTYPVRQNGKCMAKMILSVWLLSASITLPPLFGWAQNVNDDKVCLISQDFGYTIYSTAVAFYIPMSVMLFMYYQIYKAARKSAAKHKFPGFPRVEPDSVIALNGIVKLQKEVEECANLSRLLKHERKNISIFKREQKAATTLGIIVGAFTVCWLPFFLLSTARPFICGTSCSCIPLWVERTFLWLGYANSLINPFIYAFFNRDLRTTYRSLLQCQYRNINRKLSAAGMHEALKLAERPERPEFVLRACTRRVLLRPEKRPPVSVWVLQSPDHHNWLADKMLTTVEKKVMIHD
Sequence of 5-hydroxytryptamine receptor 5A (P47898 whole entry): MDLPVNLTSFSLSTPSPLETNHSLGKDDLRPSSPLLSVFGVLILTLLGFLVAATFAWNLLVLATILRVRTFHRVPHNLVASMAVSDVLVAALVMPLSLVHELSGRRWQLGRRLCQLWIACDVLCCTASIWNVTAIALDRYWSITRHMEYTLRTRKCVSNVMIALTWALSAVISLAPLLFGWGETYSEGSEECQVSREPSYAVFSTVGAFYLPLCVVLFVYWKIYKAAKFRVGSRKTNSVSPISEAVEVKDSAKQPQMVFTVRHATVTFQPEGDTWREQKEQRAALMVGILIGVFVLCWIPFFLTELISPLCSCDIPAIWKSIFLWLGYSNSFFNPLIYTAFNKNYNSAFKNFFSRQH
Sequence of 5-hydroxytryptamine receptor 2A (P28223 whole entry): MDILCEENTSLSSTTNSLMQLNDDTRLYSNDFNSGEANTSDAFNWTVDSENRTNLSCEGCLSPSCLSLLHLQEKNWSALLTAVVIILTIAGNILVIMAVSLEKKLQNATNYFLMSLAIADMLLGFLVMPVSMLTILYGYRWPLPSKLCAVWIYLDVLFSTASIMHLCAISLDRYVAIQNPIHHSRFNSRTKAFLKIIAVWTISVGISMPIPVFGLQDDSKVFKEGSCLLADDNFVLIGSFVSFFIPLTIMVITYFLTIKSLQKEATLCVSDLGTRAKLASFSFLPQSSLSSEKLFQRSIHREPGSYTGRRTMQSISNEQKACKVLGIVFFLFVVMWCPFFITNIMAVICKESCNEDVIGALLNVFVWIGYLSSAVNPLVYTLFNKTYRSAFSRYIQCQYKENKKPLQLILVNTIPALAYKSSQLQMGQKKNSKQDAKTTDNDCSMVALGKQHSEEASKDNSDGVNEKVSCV

SMILES: COc1ccccc1N1CCN(CCN(c2ccccn2)C(=O)[C@H]2CC[C@H](C[18F])CC2)CC1
- Ki [1]: 0.9 nM
- Ratio [2]: 7.7

SMILES: CN1CCN(c2cccc3c2C[C@H](NC(=O)c2ccc(OS(C)(=O)=O)cc2)CC3)CC1
- Ki [3]: 0.25 nM

SMILES: COc1cc(CCNCc2ccccc2F)c(O[11CH3])cc1I
- Drug uptake [4]: 0.17

SMILES: O=S(=O)(c1ccccc1F)N1CCC[C@@H]1CCCN1CCN(c2ccccn2)CC1
- Ki [5]: 0.17 nM

SMILES: COc1cc(C(F)(F)F)c(OC)cc1CCNCc1ccccc1O[11CH3]
- Drug uptake [4]: 0.82

SMILES: CCC(=O)Nc1ccc2[nH]cc(C3CCN(C)CC3)c2n1
- Ki [6]: > 300 nM
- Ki [7]: > 300 nM
- Ki [8]: > 300 nM
- Ki [9]: > 300 nM
- Ki [10]: > 300 nM
- Ki [11]: > 300 nM
- Ki [12]: > 300 nM

SMILES: COc1cc(CCN)c(O[11CH3])cc1I
- Drug uptake [4]: 0.17

SMILES: COc1cc(CCNCc2ccccc2OC)c(O[11CH3])cc1I
- SUV [13]: 0.8

SMILES: [11CH3]N1CCN(c2cccc3c2O[C@H](C(=O)Nc2ccc(N4CCOCC4)cc2)CC3)CC1
- Ki [3]: 0.6 nM

SMILES: O=C(C1CCCCC1)N(CCN1CCN(c2ccccc2O)CC1)c1ccccn1
- Ki [1]: 1.4 nM
- Ki [14]: 364 nM

SMILES: NC(=O)c1ccc(F)c2c1CC(N(C1CCC1)C1CCC1)CO2 (centres undefined)
- Ki [1]: 0.6 nM
- logD [15]: 2.5

SMILES: CCCN(CCC)[C@@H]1CCc2cccc(SC)c2C1
- Ki [1]: 0.6 nM

SMILES: CC(=O)Nc1ccc2[nH]cc(C3CCN(C)CC3)c2n1
- Ki [6]: > 240 nM
- Ki [7]: > 240 nM
- Ki [8]: > 240 nM
- Ki [9]: > 240 nM
- Ki [10]: > 240 nM
- Ki [11]: > 240 nM
- Ki [12]: > 240 nM

SMILES: CC(C)c1cc(-c2ccc(F)c3ccccc23)nc(N)n1
- Ki [8]: 0.3 nM

SMILES: COc1ccccc1N1CCN(CCN(c2cccc(F)n2)[11C](=O)C2CCCCC2)CC1
- Drug uptake [16]: 8%

SMILES: CC1CCN(CCC[C@H]2CCCN2S(=O)(=O)c2ccccc2F)CC1
- Ki [5]: 7.6 nM

SMILES: COc1c(Br)cc([18F])cc1CCNCc1ccccc1O
- Ki [17]: 7.2 nM

SMILES: Cc1[nH]c2ccc(NC(=O)c3ccc(F)cc3)cc2c1CCN(C)C
- Ki [6]: > 260 nM
- Ki [7]: > 260 nM
- Ki [8]: > 260 nM
- Ki [9]: > 260 nM
- Ki [10]: > 260 nM
- Ki [11]: > 260 nM
- Ki [12]: > 260 nM

SMILES: COc1ccccc1N1CCN(CCNC(=O)c2ccccn2)CC1
- Ki [14]: 20 nM

SMILES: COc1ccccc1N1CCN(CCN(c2ccccn2)C(=O)[C@H]2CC[C@@H](C[18F])CC2)CC1
- Ratio [2]: 0.58

SMILES: COc1ccccc1N1CCN(CCN(C(=O)N2CCCCC2)c2cccc(Br)n2)CC1
- Ki [18]: 0.31 nM

SMILES: [11CH3]Sc1cccc(C(=O)NC[C@H]2CCCN2CCc2ccccc2)c1
- Ki [1]: 160 nM

SMILES: COc1cccc2c1CCCC2CCCN1CCN(c2ccccc2)CC1 (centres undefined)
- Ki [1]: 0.5 nM

SMILES: [11CH3]N1CCN(c2cccc3c2OC(C(=O)Nc2ccc(N4CCOCC4)cc2)CC3)CC1 (racemic)
- Ki [3]: 0.4 nM

SMILES: [11CH3]Oc1ccccc1N1CCN(CCCN/C(=N\C#N)c2ccccn2)CC1
- Ki [1]: 0.8 nM

SMILES: COc1ccccc1N1CCN(CCNC(=O)C2CC3CCC2CC3)CC1 (centres undefined)
- IC50 [19]: 1 nM

SMILES: O=C(NCCN1CCN(C2CCCc3ccccc32)CC1)c1ccc([18F])cc1 (centres undefined)
- Ki [1]: 0.5 nM

SMILES: CCCN(CCCSC)C1CCc2cccc(O)c2C1 (racemic)
- Ki [1]: 0.19 nM
